Assay [1] has as its system MCF-7 cells. Briefly: MTT cytotoxicity assay, MCF-7 breast cancer cells. As to conditions: Homo sapiens. The class given is cell-based. The protocol: (§1) All cells were incubated at 37 °C in 5% carbon dioxide atmosphere (NuAire). Cells were plated at a density of 5x10^4 cells in triplicates in a plate of 96 wells. On the second day, cells were treated with the compounds with concentrations of (0.01, 0.1, 1, 10, and 100 µM). Cell viability was assessed using the MTT assay [6].
(Tetrazolium assays rely on reduction of a dye to a coloured formazan, in cell work by metabolically active cells.)

Assay [2] has as its system MDA-MB-231 cells. Briefly: MTT cytotoxicity assay, MDA-MB-231 breast cancer cells. In kind it is cell-based. As to conditions: Homo sapiens. The protocol:
as §1

Setting [3] is: MCF7, MTT assay, mean ± SD of three independent trials, read-out: IC50 ± SD, MCF-7.
Setting [4] is: MDA-MB-231, MTT assay, mean ± SD of three independent trials, read-out: IC50 ± SD, MDA-MB-231.

Like-named read-outs stand apart in the source and are kept apart here.

On to `COC(=O)[C@@H](NC(=O)CN1C(=O)S[C@@]2(C1=O)[C@@H](c1ccc(Br)cc1)[C@H]1CSCN1[C@@]21C(=O)Nc2ccc(F)cc21)C(C)C` [Compound 5m, Methyl (2-((3S,6′S,7′S,7a′S)-7'-(4-bromophenyl)-5-fluoro-2,2″,4″-trioxo-7′,7a′-dihydro-1′H,3′H-dispiro [indoline-3,5′-pyrrolo [1,2-c]thiazole-6′,5″-thiazolidin]-3″-yl)acetyl)valinate], for which the IC50 worked out at 4.5 ± 0.4 µM in assay [1] (setting [3]) and 6.3 ± 0.3 µM in assay [2] (setting [4]).

As for `COC(=O)CCCNC(=O)CN1C(=O)S[C@@]2(C1=O)[C@@H](c1ccc(Br)cc1)[C@H]1CSCN1[C@@]21C(=O)Nc2cc(Cl)ccc21` [Compound 5o, Methyl 4-(2-((3S,6′S,7′S,7a′S)-7'-(4-bromophenyl)-6-chloro-2,2″,4″-trioxo-7′,7a′-dihydro-1′H,3′H-dispiro [indoline-3,5′-pyrrolo [1,2-c]thiazole-6′,5″-thiazolidin]-3″-yl)acetamido)butanoate], the 50% inhibitory concentration (IC50) in assay [1] (setting [3]) worked out at 4.12 ± 0.4 µM; in assay [2] (setting [4]), 4.32 ± 0.5 µM.

Take `C#Cc1cccc(Nc2ncnc3cc(OCCOC)c(OCCOC)cc23)c1` [Erlotinib, reference compound]: the IC50 turned out to be 2.14 ± 0.3 µM in assay [1] (MCF7, read-out: IC50 ± SD, MCF-7) and 3.25 ± 0.5 µM in assay [2] (MDA-MB-231, read-out: IC50 ± SD, MDA-MB-231).

One may read the IC50 as the concentration that inhibits the measured activity by half.

(Values after article PMC10937419, “Exploring pyrrolidinyl-spirooxindole natural products as promising platforms for the synthesis of novel spirooxindoles as EGFR/CDK2 inhibitors for halting breast cancer cells” (Frontiers in Chemistry, 2024).)
